Ratio data for 27 compounds are collected here from ChEMBL document CHEMBL3351801, “Phragmalin-type limonoids with NF-κB inhibition from Chukrasia tabularis var. velutina” (Bioorg Med Chem Lett, 2014).

What all share (type): cell-based
The target of test [1] is T1, Nuclear factor NF-kappa-B complex (Homo sapiens) (UniProt Q00653+P19838+Q04206). Nature of the test: Inhibition of LPS-induced NF-kappaB (unknown origin) expressed in HEK293 cells at 10 ug/ml after 4 hrs by luciferase reporter gene assay relative to LPS-treated control. (In general: A reporter such as luciferase makes a cellular process visible.)
T1 sequence (P19838 whole entry, looked up): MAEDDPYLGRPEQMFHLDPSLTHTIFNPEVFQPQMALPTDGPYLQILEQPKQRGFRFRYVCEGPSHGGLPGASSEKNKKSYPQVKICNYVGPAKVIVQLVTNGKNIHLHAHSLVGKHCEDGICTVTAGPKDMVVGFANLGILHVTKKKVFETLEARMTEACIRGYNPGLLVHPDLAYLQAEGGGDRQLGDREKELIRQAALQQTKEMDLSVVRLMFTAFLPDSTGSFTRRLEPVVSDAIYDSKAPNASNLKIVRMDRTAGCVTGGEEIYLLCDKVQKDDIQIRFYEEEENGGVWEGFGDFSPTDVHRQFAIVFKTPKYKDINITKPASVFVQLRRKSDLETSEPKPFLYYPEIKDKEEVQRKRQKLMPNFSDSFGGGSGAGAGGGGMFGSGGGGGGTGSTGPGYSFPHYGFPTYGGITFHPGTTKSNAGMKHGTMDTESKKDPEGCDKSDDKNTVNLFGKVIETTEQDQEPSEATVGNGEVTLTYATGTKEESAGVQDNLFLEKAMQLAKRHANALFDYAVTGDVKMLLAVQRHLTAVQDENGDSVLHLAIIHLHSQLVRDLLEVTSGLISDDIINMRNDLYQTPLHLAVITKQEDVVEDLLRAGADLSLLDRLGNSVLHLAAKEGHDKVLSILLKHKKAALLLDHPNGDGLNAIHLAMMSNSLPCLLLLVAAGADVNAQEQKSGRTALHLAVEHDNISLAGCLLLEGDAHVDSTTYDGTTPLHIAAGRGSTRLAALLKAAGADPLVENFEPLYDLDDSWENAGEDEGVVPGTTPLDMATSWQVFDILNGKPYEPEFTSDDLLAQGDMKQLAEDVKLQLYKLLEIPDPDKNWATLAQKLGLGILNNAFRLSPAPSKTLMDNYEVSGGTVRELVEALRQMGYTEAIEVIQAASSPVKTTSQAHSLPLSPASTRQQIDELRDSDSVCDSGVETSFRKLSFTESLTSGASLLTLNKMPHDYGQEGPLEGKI
T1 sequence (Q00653 whole entry, looked up): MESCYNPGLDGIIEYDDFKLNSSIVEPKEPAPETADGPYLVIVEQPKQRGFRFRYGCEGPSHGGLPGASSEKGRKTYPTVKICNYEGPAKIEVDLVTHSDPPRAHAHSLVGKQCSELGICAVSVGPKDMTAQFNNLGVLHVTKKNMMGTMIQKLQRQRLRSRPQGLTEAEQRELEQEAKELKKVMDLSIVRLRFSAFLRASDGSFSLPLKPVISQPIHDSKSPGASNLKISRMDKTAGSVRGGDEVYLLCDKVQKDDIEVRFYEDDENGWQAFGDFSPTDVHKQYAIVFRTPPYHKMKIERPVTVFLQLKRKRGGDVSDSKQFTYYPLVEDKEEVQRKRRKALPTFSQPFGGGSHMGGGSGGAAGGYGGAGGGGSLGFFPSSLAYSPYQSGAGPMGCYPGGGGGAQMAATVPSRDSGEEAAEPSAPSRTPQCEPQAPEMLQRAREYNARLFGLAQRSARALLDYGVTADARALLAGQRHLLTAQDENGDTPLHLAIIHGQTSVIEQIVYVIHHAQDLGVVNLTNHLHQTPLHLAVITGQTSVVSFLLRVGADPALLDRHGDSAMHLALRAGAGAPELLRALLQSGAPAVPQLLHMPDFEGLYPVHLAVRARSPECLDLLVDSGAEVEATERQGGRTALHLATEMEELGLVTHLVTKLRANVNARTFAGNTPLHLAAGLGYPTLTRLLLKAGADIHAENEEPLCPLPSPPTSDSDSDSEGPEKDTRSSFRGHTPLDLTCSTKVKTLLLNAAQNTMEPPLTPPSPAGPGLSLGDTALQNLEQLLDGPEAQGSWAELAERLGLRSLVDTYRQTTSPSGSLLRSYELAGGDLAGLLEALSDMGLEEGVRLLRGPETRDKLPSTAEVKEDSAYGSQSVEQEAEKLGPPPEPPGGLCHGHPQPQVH
T1 sequence (Q04206 whole entry, looked up): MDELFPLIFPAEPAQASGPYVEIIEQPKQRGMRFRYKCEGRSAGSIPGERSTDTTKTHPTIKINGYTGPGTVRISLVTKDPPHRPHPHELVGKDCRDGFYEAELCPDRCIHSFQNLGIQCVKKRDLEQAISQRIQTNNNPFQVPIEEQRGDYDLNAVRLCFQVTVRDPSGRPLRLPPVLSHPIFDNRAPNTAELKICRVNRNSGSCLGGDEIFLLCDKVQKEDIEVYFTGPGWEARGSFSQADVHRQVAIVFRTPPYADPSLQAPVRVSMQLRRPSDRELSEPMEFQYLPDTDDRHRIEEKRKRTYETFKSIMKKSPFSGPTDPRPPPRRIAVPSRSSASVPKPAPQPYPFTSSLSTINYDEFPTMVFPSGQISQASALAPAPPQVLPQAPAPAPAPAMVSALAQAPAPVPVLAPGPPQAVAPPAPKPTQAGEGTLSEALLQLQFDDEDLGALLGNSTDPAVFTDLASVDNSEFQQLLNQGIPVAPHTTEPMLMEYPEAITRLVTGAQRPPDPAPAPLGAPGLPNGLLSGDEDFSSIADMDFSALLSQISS
In test [2] the target is T1, Nuclear factor NF-kappa-B complex (Homo sapiens). Nature of the test: Inhibition of LPS-induced NF-kappaB (unknown origin) expressed in HEK293 cells at 1 ug/ml after 4 hrs by luciferase reporter gene assay relative to LPS-treated control.
For test [3] the target is unchanged. Put plainly: Inhibition of LPS-induced NF-kappaB (unknown origin) expressed in HEK293 cells at 100 ug/ml after 4 hrs by luciferase reporter gene assay relative to LPS-treated control.

On to `CC/C(O)=C1/C(=O)O[C@@H]2[C@@]3(O)[C@@H](OC(C)=O)[C@@]4(C)C[C@]35OC3(C)O[C@]26[C@H]1[C@](C)([C@@H](OC(C)=O)c1ccoc1)[C@@H](OC(C)=O)[C@@H](O)[C@]6(O3)[C@]5(COC(C)=O)[C@H]4CC(=O)OC`, for which the figures for the Ratio in test [1], in test [2] and in test [3] were 0.3, 0.23 and 0.35, respectively.

For `CCC12C[C@@H]3[C@](C)([C@@H](OC(C)=O)c4ccoc4)[C@@H](OC(C)=O)[C@@H](OC(C)=O)[C@@]4(O)[C@]3(O1)[C@H](O2)[C@@]1(OC(C)=O)[C@@H](OC(C)=O)[C@@]2(C)C[C@@]1(O)[C@@]4(C)[C@H]2CC(=O)OC`, the Ratio is 0.39 in test [1], 0.61 in test [2] and 0.75 in test [3].

For `CCC12C[C@@H]3[C@](C)([C@@H](OC(C)=O)c4ccoc4)[C@@H](OC(C)=O)[C@@H](OC(C)=O)[C@@]4(O)[C@]3(O1)[C@H](O2)[C@@]1(O)[C@@H](OC(C)=O)[C@@]2(C)C[C@@]1(O)[C@]41COC(=O)C[C@@H]21`, the Ratio in test [1] worked out at 0.26; in test [2] it was 0.16; in test [3], 0.31.

Regarding `C[C@]12CCC(=O)C=C1CC[C@@H]1[C@@H]2[C@@H](O)C[C@@]2(C)[C@H]1CC[C@]2(O)C(=O)CO`, the Ratio in test [1] is 0.37; in test [2], 0.29; in test [3], 0.6.

Regarding `CCC1=C[C@@H]2[C@](C)([C@@H](OC(C)=O)c3ccoc3)[C@@H](OC(C)=O)[C@@H](OC(C)=O)[C@@]34OC(=O)O[C@@]23[C@H](O1)[C@@]1(O)[C@@H](O)[C@@]2(C)C[C@@]1(O)[C@@]4(C)[C@H]2CC(=O)OC`, the Ratio in test [1] is 0.14; in test [2], 0.16; in test [3] it was 0.26.

Take `CCC12C[C@@H]3[C@](C)([C@@H](OC(C)=O)c4ccoc4)[C@@H](O)[C@@H](O)[C@@]4(O)[C@]3(O1)[C@H](O2)[C@@]1(OC(C)=O)[C@@H](OC(C)=O)[C@@]2(C)C[C@@]1(O)[C@]41COC(=O)C[C@@H]21`: the Ratio in test [1] amounted to 0.48; in test [2], 0.33; in test [3], 0.59.

With `COC(=O)[C@H](OC(C)=O)[C@H]1[C@]2(C)C[C@]3(O)[C@@](OC(=O)C(C)C)([C@H]4OC5(C)O[C@@]6([C@H](O)[C@H](OC(C)=O)[C@]78C[C@]7([C@@H](OC(C)=O)C(=O)O[C@H]8c7ccoc7)[C@@]46O5)[C@]13C)[C@H]2OC(C)=O`, the Ratio was determined as 0.05 in test [1], 0.13 in test [2] and 0.24 in test [3].

With `CC/C(O)=C1/C(=O)O[C@@H]2[C@@]3(O)[C@@H](OC(C)=O)[C@@]4(C)C[C@]35OC3(C)O[C@]26[C@H]1[C@](C)([C@@H](OC(C)=O)c1ccoc1)[C@@H](OC(=O)C(C)C)[C@@H](OC(=O)C(C)C)[C@]6(O3)[C@@]51COC(=O)C[C@@H]41`, the Ratio in test [1] is 0.18; in test [2] it was 0.11; in test [3], 0.29.

As for `COC(=O)[C@H](O)[C@H]1[C@]2(C)C[C@]3(O)[C@@](O)([C@@H](OC(=O)C(C)C)[C@]45OC6(C)O[C@H]([C@H](OC(C)=O)[C@]78C[C@@]74[C@@H](OC(C)=O)C(=O)O[C@H]8c4ccoc4)[C@]5(O6)[C@]13C)[C@H]2OC(C)=O`, the Ratio in test [1] is 0.15; in test [2], 0.22; in test [3], 0.34.

As for `COC(=O)[C@H](OC(C)=O)[C@H]1[C@]2(C)C[C@]3(O)[C@@](O)([C@H]4OC(=O)[C@@H]5O[C@@H](c6ccoc6)[C@@]67C[C@@]56[C@]4(O)[C@](O)([C@H](OC(=O)C(C)C)[C@@H]7OC(C)=O)[C@]13C)[C@H]2OC(C)=O`, the results for the Ratio in test [1], in test [2] and in test [3] were 0.27, 0.14 and 0.3, respectively.

Regarding `COC(=O)C[C@H]1[C@]2(C)C[C@@]34OC5(C)O[C@]6([C@@H]7/C(=C(\C)O)C(=O)O[C@@H](c8ccoc8)[C@]7(C)[C@@H](OC(C)=O)[C@@H](O)[C@]6(O5)[C@]13COC(C)=O)[C@H](OC(C)=O)[C@@]4(OC(C)=O)[C@H]2OC(C)=O`, the Ratio in test [1] turned out to be 0.33; in test [2], 0.25; in test [3] it was 0.62.

As to `CCC12C[C@@H]3[C@](C)([C@@H](OC(C)=O)c4ccoc4)[C@@H](OC(C)=O)[C@@H](OC(C)=O)[C@@]4(O)[C@]3(O1)[C@H](O2)[C@@]1(OC(C)=O)[C@@H](OC(C)=O)[C@@]2(C)C[C@@]1(O)[C@@]4(COC(C)=O)[C@H]2CC(=O)OC`, the Ratio was determined as 0.38 in test [1], 0.36 in test [2] and 0.53 in test [3].

`CCC12C[C@@H]3[C@](C)([C@@H](OC(C)=O)c4ccoc4)[C@@H](OC(C)=O)[C@@H](OC(C)=O)[C@@]4(O)[C@]3(O1)[C@H](O2)[C@@]1(O)[C@@H](OC(C)=O)[C@@]2(C)C[C@@]1(O)[C@@]4(C)[C@H]2CC(=O)OC`: the Ratio turned out to be 0.08 in test [1], 0.12 in test [2] and 0.17 in test [3].

Take `COC(=O)C[C@H]1[C@]2(C)C[C@]3(O)[C@@](O)([C@@H](OC(=O)C(C)C)[C@]45OC6(C)O[C@H]([C@H](O)[C@]78C[C@@]74[C@@H](OC(C)=O)C(=O)O[C@H]8c4ccoc4)[C@]5(O6)[C@]13C)[C@H]2OC(C)=O`: the Ratio turned out to be 0.1 in test [1], 0.1 in test [2] and 0.17 in test [3].

With `COC(=O)C[C@H]1[C@]2(C)C[C@]3(O)[C@@](O)([C@@H](OC(=O)C(C)C)[C@]45OC6(C)O[C@H]([C@H](OC(C)=O)[C@]78C[C@@]74[C@@H](OC(C)=O)C(=O)O[C@H]8c4ccoc4)[C@]5(O6)[C@]13C)[C@H]2OC(C)=O`, the Ratio in test [1] is 0.32; in test [2], 0.12; in test [3], 0.35.

On to `CC(=O)O[C@@H]1[C@H](OC(C)=O)[C@@](C)([C@@H](OC(C)=O)c2ccoc2)[C@H]2CC3(C(C)C)O[C@@H]4[C@@]5(OC(C)=O)[C@@H](OC(C)=O)[C@@]6(C)C[C@@]5(O)[C@]5(COC(=O)C[C@@H]65)[C@]1(O)[C@@]24O3`, for which the Ratio was found to be 0.25 in test [1], 0.17 in test [2] and 0.3 in test [3].

For `COC(=O)C[C@H]1[C@]2(C)C[C@]3(O)[C@@](OC(C)=O)([C@H]4OC5(C)C[C@@H]6[C@](C)([C@@H](OC(C)=O)c7ccoc7)[C@@H](OC(C)=O)[C@@H](OC(C)=O)[C@@](O)([C@@]64O5)[C@]13COC(C)=O)[C@H]2OC(C)=O`, the figures for the Ratio in test [1], in test [2] and in test [3] were 0.34, 0.23 and 0.8, respectively.

Regarding `COC(=O)[C@H](OC(C)=O)[C@H]1[C@]2(C)C[C@]3(O)[C@@](O)([C@@H](OC(=O)C(C)C)[C@]45OC6(C)O[C@H]([C@H](O)[C@]78C[C@@]74[C@@H](OC(C)=O)C(=O)O[C@H]8c4ccoc4)[C@]5(O6)[C@]13C)[C@H]2OC(C)=O`, the Ratio was found to be 0.1 in test [1], 0.05 in test [2] and 0.1 in test [3].

With `CC/C(O)=C1/C(=O)O[C@@H]2[C@@]3(OC(C)=O)[C@@H](OC(C)=O)[C@@]4(C)C[C@]35OC3(C)O[C@]26[C@H]1[C@](C)([C@@H](OC(C)=O)c1ccoc1)[C@@H](OC(C)=O)[C@@H](O)[C@]6(O3)[C@]5(COC(C)=O)[C@H]4CC(=O)OC`, the results for the Ratio in test [1], in test [2] and in test [3] were 0.33, 0.23 and 0.45, respectively.

For `CCC12C[C@@H]3[C@](C)([C@@H](OC(C)=O)c4ccoc4)[C@@H](OC(C)=O)[C@@H](OC(C)=O)[C@@]4(O)[C@]3(O1)[C@H](O2)[C@@]1(OC(C)=O)[C@@H](OC(C)=O)[C@@]2(C)C[C@@]1(O)[C@]41COC(=O)C[C@@H]21`, the Ratio in test [1] is 0.34; in test [2] it was 0.09; in test [3], 0.31.

As for `COC(=O)[C@H](O)[C@H]1[C@]2(C)C[C@]3(O)[C@@](O)([C@H]4OC5(C)C[C@@H]6[C@](C)([C@@H](OC(C)=O)c7ccoc7)[C@@H](OC(C)=O)[C@@H](OC(C)=O)[C@@](O)([C@@]64O5)[C@]13C)[C@H]2O`, the Ratio in test [1] is 0.2; in test [2], 0.33; in test [3] it was 0.56.

For the compound `COC(=O)C[C@H]1[C@]2(C)C[C@]3(O)[C@@](OC(C)=O)([C@H]4OC5(C)C[C@@H]6[C@](C)([C@@H](OC(C)=O)c7ccoc7)[C@@H](OC(C)=O)[C@@H](OC(C)=O)[C@@](O)([C@@]64O5)[C@]13C)[C@H]2OC(C)=O`, the Ratio was found to be 0.33 in test [1], 0.21 in test [2] and 0.32 in test [3].

On to `CCC12C[C@@H]3[C@](C)([C@@H](OC(C)=O)c4ccoc4)[C@@H](O)[C@@H](OC(C)=O)[C@@]4(O)[C@]3(O1)[C@H](O2)[C@@]1(OC(C)=O)[C@@H](O)[C@@]2(C)C[C@@]1(O)[C@@]4(C)[C@H]2[C@@H](O)C(=O)OC`, for which the Ratio stood at 0.23 in test [1], 0.1 in test [2] and 0.3 in test [3].

For the compound `COC(=O)C[C@H]1[C@]2(C)C[C@]3(O)[C@@](O)([C@H]4OC(C)=C[C@@H]5[C@](C)([C@@H](OC(C)=O)c6ccoc6)[C@@H](OC(C)=O)[C@@H](OC(C)=O)[C@]6(OC(=O)O[C@]546)[C@]13C)[C@H]2O`, the Ratio in test [1] was 0.57; in test [2], 0.69; in test [3], 0.86.

In the case of `CC(=O)O[C@@H]1[C@H](OC(C)=O)[C@@](C)([C@@H](OC(C)=O)c2ccoc2)[C@H]2CC3(C)O[C@@H]4[C@@]5(OC(C)=O)[C@@H](OC(C)=O)[C@@]6(C)C[C@@]5(O)[C@]5(COC(=O)C[C@@H]65)[C@]1(O)[C@@]24O3`, the Ratio in test [1] worked out at 0.27; in test [2], 0.25; in test [3] it was 0.42.

`COC(=O)[C@H](OC(C)=O)[C@H]1[C@]2(C)C[C@]3(O)[C@@](O)([C@@H](OC(=O)C(C)C)[C@]45OC6(C)O[C@H]([C@H](OC(C)=O)[C@]78C[C@@]74[C@@H](OC(C)=O)C(=O)O[C@H]8c4ccoc4)[C@]5(O6)[C@]13C)[C@H]2OC(C)=O`: the Ratio in test [1] came out at 0.55; in test [2], 0.37; in test [3], 0.62.

In the case of `CCC(=O)O[C@@H]1[C@@]2(O)[C@@H](OC(C)=O)[C@@]3(C)C[C@]24OC2(C)O[C@]15[C@@H]1CC(=O)O[C@@H](c6ccoc6)[C@]1(C)[C@@H](OC(C)=O)[C@@H](O)[C@]5(O2)[C@]4(COC(C)=O)[C@H]3CC(=O)OC`, the Ratio in test [1] was found to be 0.26; in test [2] it was 0.18; in test [3], 0.32.
